{"source": "patent US9102591B2", "about": "“Benzamides” (H. Lundbeck A/S, priority 2012, dated 2015)"}
{"biological_target": "P2X7 receptor (Homo sapiens (Human), UniProt Q99572)", "sequence (Q99572 whole entry)": "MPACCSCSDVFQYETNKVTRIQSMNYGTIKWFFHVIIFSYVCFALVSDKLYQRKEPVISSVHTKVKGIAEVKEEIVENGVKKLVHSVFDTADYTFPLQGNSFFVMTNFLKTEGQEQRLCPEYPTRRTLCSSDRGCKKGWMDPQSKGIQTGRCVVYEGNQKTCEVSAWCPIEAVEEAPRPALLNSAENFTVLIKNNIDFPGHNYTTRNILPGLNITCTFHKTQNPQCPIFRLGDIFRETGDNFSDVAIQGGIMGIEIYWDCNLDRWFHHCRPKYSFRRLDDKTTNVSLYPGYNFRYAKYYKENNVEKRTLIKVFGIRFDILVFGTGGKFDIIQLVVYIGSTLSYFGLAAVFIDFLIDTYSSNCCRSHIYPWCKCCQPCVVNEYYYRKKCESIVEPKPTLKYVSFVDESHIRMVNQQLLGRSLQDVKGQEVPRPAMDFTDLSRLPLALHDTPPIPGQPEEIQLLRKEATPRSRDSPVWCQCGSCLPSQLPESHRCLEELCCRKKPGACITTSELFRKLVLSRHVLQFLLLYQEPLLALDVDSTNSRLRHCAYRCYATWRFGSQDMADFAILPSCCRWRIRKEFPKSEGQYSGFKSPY", "assay": "P2X7 FLIPR assay (BzATP-stimulated calcium fluorescence, antagonist IC50)", "assay_type": "cell-based", "experimental": "This example illustrates representative assays for use in evaluating the test compounds for antagonist activity. Compounds of the present invention were tested in vitro for their ability to act as antagonists to the P2X7receptor. […]\nCells were plated to cell density of approximately 15,000 cells/well in 384-well assay plates (50 μl/well) with 1.5% low serum media (DMEM, 1.5% FBS, 1% L-glut (2 mM), 10 mM HUES, 1% P/S). Cells were plated 24 hours prior to assay. Cells expressing human, rat or mouse P2X7 receptor were assayed in the following manner.\nFluo-4 NW dye mix (Molecular Probes, Inc., Eugene, Oreg., USA) was prepared in buffer (see manufacturer's instructions). Cell plates were removed from the 37° C. incubator, the media discarded and then 30 μL of dye was added to each well. Plates were placed in the 37° C., non-CO2 incubator for 30 minutes and then room temperature for 30 minutes.\nCompound mixtures (A) were added to assay plates containing cells and placed at room temperature for 30 minutes, then BzATP (B) was added. Fluorescence was read using the Tetra FLIPR® (Molecular Devices, Inc., Sunnyvale, Calif., USA) and IC50 values were calculated by standard methods to determine antagonist activity.", "units": {"IC50": "nM"}}
{"compound": "O=C(NCC(CC1(C(F)(F)F)CC1)c1ccc(C(F)(F)F)nc1)c1cccc(F)c1Cl", "note": "(single isomer, unassigned; (+)) [(+)2-chloro-3-fluoro-N-[3-[1-(trifluoromethyl)cyclopropyl]-2] [(+)2-chloro-3-fluoro-N-[3-[1-(trifluoromethyl)cyclopropyl]-2-[6-(trifluoromethyl)-3-pyridyl]propyl]benzamide]", "IC50": 7.2}
{"compound": "O=C(NCC(c1ccc(F)cc1)c1cnc(C(F)(F)F)nc1)c1c(F)cccc1Cl", "note": "(single isomer, unassigned; (+)) [(+)2-chloro-6-fluoro-N-[2-(4-fluorophenyl)-2-[2-(trifluorome] [(+)2-chloro-6-fluoro-N-[2-(4-fluorophenyl)-2-[2-(trifluoromethyl)pyrimidin-5-yl]ethyl]benzamide]", "IC50": 6.7}
{"compound": "O=C(NCC(c1ccc(F)cc1)c1ccc(C(F)(F)F)nc1)c1c(F)cccc1Cl", "note": "(single isomer, unassigned; (+)) [(+)2-chloro-6-fluoro-N-[2-(4-fluorophenyl)-2-[6-(trifluorome] [(+)2-chloro-6-fluoro-N-[2-(4-fluorophenyl)-2-[6-(trifluoromethyl)-3-pyridyl]ethyl]benzamide]", "IC50": 15}
{"compound": "O=C(NCC(c1cnc(C(F)(F)F)nc1)C1CCOCC1)c1c(F)cccc1Cl", "note": "(single isomer, unassigned; (+)) [(+)2-chloro-6-fluoro-N-[2-tetrahydropyran-4-yl-2-[2-(trifluo] [(+)2-chloro-6-fluoro-N-[2-tetrahydropyran-4-yl-2-[2-(trifluoromethyl)pyrimidin-5-yl]ethyl]benzamide]", "IC50": 56}
{"compound": "Cc1ncc(C(CNC(=O)c2ccccc2Cl)C2CCOCC2)cn1", "note": "(single isomer, unassigned; (+)) [(+)2-chloro-N-[2-(2-methylpyrimidin-5-yl)-2-tetrahydropyran-] [(+)2-chloro-N-[2-(2-methylpyrimidin-5-yl)-2-tetrahydropyran-4-yl-ethyl]benzamide]", "IC50": 970}
{"compound": "Cc1ncc(C(CNC(=O)c2ccccc2Cl)CC2(C(F)(F)F)CC2)cn1", "note": "(single isomer, unassigned; (+)) [(+)2-chloro-N-[2-(2-methylpyrimidin-5-yl)-3-[1-(trifluoromet] [(+)2-chloro-N-[2-(2-methylpyrimidin-5-yl)-3-[1-(trifluoromethyl)cyclopropyl]propyl]benzamide]", "IC50": 130}
{"compound": "O=C(NCC(c1cnc(C(F)(F)F)nc1)C1CCC(F)(F)CC1)c1c(F)cccc1Cl", "note": "(single isomer, unassigned; (+)) [(+)2-chloro-N-[2-(4,4-difluorocyclohexyl)-2-[2-(trfluorometh] [(+)2-chloro-N-[2-(4,4-difluorocyclohexyl)-2-[2-(trfluoromethyl)pyrimidin-5-yl]ethyl]-6-fluoro-benzamide]", "IC50": 75}
{"compound": "O=C(NCC(c1cnc(C(F)(F)F)nc1)C1CCC(F)(F)CC1)c1cccc(F)c1Cl", "note": "(single isomer, unassigned; (+)) [(+)2-chloro-N-[2-(4,4-difluorocyclohexyl)-2-[2-(trifluoromet] [(+)2-chloro-N-[2-(4,4-difluorocyclohexyl)-2-[2-(trifluoromethyl)pyrimidin-5-yl]ethyl]-3-fluoro-benzamide]", "IC50": 45}
{"compound": "O=C(NCC(c1cnc(C(F)(F)F)nc1)C1CCC(F)(F)CC1)c1ccccc1Cl", "note": "(single isomer, unassigned; (+)) [(+)2-chloro-N-[2-(4,4-difluorocyclohexyl)-2-[2-(trifluoromet] [(+)2-chloro-N-[2-(4,4-difluorocyclohexyl)-2-[2-(trifluoromethyl)pyrimidin-5-yl]ethyl]benzamide]", "IC50": 32}
{"compound": "O=C(NCC(c1ccc(F)cc1)c1cnc(C(F)(F)F)nc1)c1ccccc1Cl", "note": "(single isomer, unassigned; (+)) [(+)2-chloro-N-[2-(4-fluorophenyl)-2-[2-(trifluoromethyl)pyri] [(+)2-chloro-N-[2-(4-fluorophenyl)-2-[2-(trifluoromethyl)pyrimidin-5-yl]ethyl]benzamide]", "IC50": 4.4}
{"compound": "O=C(NCC(c1ccc(F)cc1)c1ccc(C(F)(F)F)nc1)c1ccccc1Cl", "note": "(single isomer, unassigned; (+)) [(+)2-chloro-N-[2-(4-fluorophenyl)-2-[6-(trifluoromethyl)-3-p] [(+)2-chloro-N-[2-(4-fluorophenyl)-2-[6-(trifluoromethyl)-3-pyridyl]ethyl]benzamide]", "IC50": 2.2}
{"compound": "O=C(NCC(c1cnc(C(F)(F)F)nc1)C1CCOCC1)c1ccccc1Cl", "note": "(single isomer, unassigned; (+)) [(+)2-chloro-N-[2-tetrahydropyran-4-yl-2-[2-(trifluoromethyl)] [(+)2-chloro-N-[2-tetrahydropyran-4-yl-2-[2-(trifluoromethyl)pyrimidin-5-yl]ethyl]benzamide]", "IC50": 51}
{"compound": "O=C(NCC(CC1(C(F)(F)F)CC1)c1cnc(C(F)(F)F)nc1)c1ccccc1Cl", "note": "(single isomer, unassigned; (+)) [(+)2-chloro-N-[3-[1-(trifluoromethyl)cyclopropyl]-2-[2-(trifluoromethyl)pyrimidin-5-yl]propyl]benzamide]", "IC50": 2.4}
{"compound": "O=C(NCC(CC1(C(F)(F)F)CC1)c1ccc(C(F)(F)F)nc1)c1ccccc1Cl", "note": "(single isomer, unassigned; (+)) [(+)2-chloro-N-[3-[1-(trifluoromethyl)cyclopropyl]-2-[6-(trif] [(+)2-chloro-N-[3-[1-(trifluoromethyl)cyclopropyl]-2-[6-(trifluoromethyl)-3-pyridyl]propyl]benzamide]", "IC50": 0.09}
{"compound": "O=C(NCC(CC1CC1)c1cnc(C(F)(F)F)nc1)c1cccc(F)c1Cl", "note": "(single isomer, unassigned; (+)) [(+)2-chloro-N-[3-cyclopropyl-2-[2-(trifluoromethyl)pyrimidin] [(+)2-chloro-N-[3-cyclopropyl-2-[2-(trifluoromethyl)pyrimidin-5-yl]propyl]-3-fluoro-benzamide]", "IC50": 50}
{"compound": "COc1cccc(C(=O)NCC(CC2CC2)c2cnc(C(F)(F)F)nc2)c1Cl", "note": "(single isomer, unassigned; (+)) [(+)2-chloro-N-[3-cyclopropyl-2-[2-(trifluoromethyl)pyrimidin] [(+)2-chloro-N-[3-cyclopropyl-2-[2-(trifluoromethyl)pyrimidin-5-yl]propyl]-3-methoxy-benzamide]", "IC50": 14}
{"compound": "O=C(NCC(CC1CC1)c1cnc(C(F)(F)F)nc1)c1c(F)cccc1Cl", "note": "(single isomer, unassigned; (+)) [(+)2-chloro-N-[3-cyclopropyl-2-[2-(trifluoromethyl)pyrimidin] [(+)2-chloro-N-[3-cyclopropyl-2-[2-(trifluoromethyl)pyrimidin-5-yl]propyl]-6-fluoro-benzamide]", "IC50": 41}
{"compound": "O=C(NCC(CC1CC1)c1cnc(C(F)(F)F)nc1)c1ccccc1Cl", "note": "(single isomer, unassigned; (+)) [(+)2-chloro-N-[3-cyclopropyl-2-[2-(trifluoromethyl)pyrimidin] [(+)2-chloro-N-[3-cyclopropyl-2-[2-(trifluoromethyl)pyrimidin-5-yl]propyl]benzamide]", "IC50": 38}
{"compound": "O=C(NCC(CC1CC1)c1ccc(C(F)F)nc1)c1cccc(F)c1Cl", "note": "(single isomer, unassigned; (+)) [(+)2-chloro-N-[3-cyclopropyl-2-[6-(difluoromethyl)-3-pyridyl] [(+)2-chloro-N-[3-cyclopropyl-2-[6-(difluoromethyl)-3-pyridyl]propyl]-3-fluoro-benzamide]", "IC50": 800}
